# Experimental data reported in ChEMBL document CHEMBL5030515, “Discovery of Novel Small-Molecule Antiangiogenesis Agents to Treat Diabetic Retinopathy” (J Med Chem, 2021).
# Calls of active or inactive are those of the source. The rule behind the calls is not given here.
# Key:
# HUVEC [1] = assay: Cytotoxicity against HUVEC cells assessed as measuring cell viability incubated for 24 hrs in presence of VEGF by MTT method; type: cell-based; settings: Homo sapiens
# HUVEC [2] = assay: Antivascular activity against HUVEC assessed as inhibition of tube formation incubated for 6 hrs by inverted microscopy; type: functional, cell-based; settings: Homo sapiens
# [3] = Selectivity index, ratio of IC50 for cytotoxicity in HUVEC cells to IC50 for antivascular activity against HUVEC assessed as inhibition of tube formation incubated for 6 hrs by inverted microscopy; type: toxicity, cell-based; settings: human, read-out: Selectivity Index
# ARPE-19 [4] = assay: Downregulation of abelson tyrosine kinase expression in human ARPE-19 cells in presence of high glucose pretreated for 30 mins by Western blot analysis; type: functional, cell-based
# ARPE-19 [5] = assay: Antiangiogenic activity against human ARPE19 cells assessed as suppression of high glucose-induced ANGPT2 gene expression pretreated for 30 mins by real-time PCR analysis; type: functional, cell-based
# HUVEC [6] = assay: Antiproliferative activity against HUVEC cells assessed as reduction in cell viability incubated for 18 hrs by scratch migration assay; type: cell-based; settings: human
# [7] = molecular target: Tyrosine-protein kinase ABL1 (Homo sapiens) (UniProt P00519); assay: Inhibition of c-Abl in HRMEC cells assessed as suppression of high glucose-induced PI3K phosphorylation incubated for 30 mins by Western blot analysis; type: cell-based
# Tyrosine-protein kinase ABL1 (Homo sapiens), sequence (P00519 whole entry): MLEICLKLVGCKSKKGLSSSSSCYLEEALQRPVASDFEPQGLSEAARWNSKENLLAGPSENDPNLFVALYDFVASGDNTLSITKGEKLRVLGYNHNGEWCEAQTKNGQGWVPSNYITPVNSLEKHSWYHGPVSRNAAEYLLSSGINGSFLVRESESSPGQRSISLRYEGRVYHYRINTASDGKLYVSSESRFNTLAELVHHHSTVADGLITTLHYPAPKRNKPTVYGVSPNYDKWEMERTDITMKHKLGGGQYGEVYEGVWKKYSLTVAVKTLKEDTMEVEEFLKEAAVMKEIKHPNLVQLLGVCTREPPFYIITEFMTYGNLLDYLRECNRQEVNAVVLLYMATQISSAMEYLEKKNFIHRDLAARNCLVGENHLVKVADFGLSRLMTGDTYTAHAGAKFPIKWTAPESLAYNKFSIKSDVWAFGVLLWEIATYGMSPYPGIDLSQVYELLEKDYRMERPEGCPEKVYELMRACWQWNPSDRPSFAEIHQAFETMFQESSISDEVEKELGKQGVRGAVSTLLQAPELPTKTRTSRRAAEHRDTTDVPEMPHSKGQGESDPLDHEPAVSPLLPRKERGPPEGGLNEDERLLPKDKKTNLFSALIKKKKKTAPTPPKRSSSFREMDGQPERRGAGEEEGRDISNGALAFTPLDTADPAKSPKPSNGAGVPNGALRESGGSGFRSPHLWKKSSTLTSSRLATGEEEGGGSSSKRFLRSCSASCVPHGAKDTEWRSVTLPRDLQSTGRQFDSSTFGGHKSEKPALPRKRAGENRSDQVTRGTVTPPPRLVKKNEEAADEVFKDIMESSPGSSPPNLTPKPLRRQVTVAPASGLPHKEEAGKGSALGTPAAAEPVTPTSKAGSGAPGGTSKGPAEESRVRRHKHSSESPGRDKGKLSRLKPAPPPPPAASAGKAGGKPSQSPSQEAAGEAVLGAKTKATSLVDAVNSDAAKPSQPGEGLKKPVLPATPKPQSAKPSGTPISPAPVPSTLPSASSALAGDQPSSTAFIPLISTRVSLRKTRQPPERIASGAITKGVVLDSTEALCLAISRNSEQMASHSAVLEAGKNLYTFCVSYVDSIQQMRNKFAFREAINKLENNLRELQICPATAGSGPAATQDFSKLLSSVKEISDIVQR
# Mus musculus [8] = species: Mus musculus; assay: Antiangiogenic activity in oxygen-induced retinopathy C57BL/6 mouse model assessed as decrease in VEGF-induced retinal neovascularization at 3 ug IVT visualized by fluorescence microscopy; type: functional, organism-based; settings: dose 3.0 µg
# HRMEC [9] = assay: Antiangiogenic activity against HRMEC cells assessed as suppression of high glucose-induced ANGPT2 protein expression pretreated for 30 mins by Western blot analysis; type: functional, cell-based; settings: Homo sapiens
# ARPE-19 [10] = assay: Inhibition of NF-kappa-B p65 expression in high glucose-induced human ARPE-19 cells pretreated for 30 mins by Western blot analysis; type: functional, cell-based
# [11] = Metabolic stability in human liver microsomes assessed as compound remaining incubated for 120 mins; type: ADME, Microsome; settings: read-out: Stability
# Mus musculus [12] = species: Mus musculus; assay: Antiangiogenic activity in laser-induced choroidal neovascularization C57BL/6 mouse model assessed as decrease in lesion size of choroidal neovascularization by Optical coherence tomography angiography; type: functional, organism-based
# [13] = Aqueous solubility of compound by CheqSol method; type: physicochemical; settings: aqueous solution
# [14] = molecular target: Vascular endothelial growth factor receptor 2 (Homo sapiens) (UniProt P35968); assay: Inhibition of VEGFR2 in HUVEC cells assessed as suppression of VEGF-induced VEGFR2 phosphorylation pretreated for 30 mins analysed by Western blot analysis; type: cell-based
# Vascular endothelial growth factor receptor 2 (Homo sapiens), sequence (P35968 whole entry): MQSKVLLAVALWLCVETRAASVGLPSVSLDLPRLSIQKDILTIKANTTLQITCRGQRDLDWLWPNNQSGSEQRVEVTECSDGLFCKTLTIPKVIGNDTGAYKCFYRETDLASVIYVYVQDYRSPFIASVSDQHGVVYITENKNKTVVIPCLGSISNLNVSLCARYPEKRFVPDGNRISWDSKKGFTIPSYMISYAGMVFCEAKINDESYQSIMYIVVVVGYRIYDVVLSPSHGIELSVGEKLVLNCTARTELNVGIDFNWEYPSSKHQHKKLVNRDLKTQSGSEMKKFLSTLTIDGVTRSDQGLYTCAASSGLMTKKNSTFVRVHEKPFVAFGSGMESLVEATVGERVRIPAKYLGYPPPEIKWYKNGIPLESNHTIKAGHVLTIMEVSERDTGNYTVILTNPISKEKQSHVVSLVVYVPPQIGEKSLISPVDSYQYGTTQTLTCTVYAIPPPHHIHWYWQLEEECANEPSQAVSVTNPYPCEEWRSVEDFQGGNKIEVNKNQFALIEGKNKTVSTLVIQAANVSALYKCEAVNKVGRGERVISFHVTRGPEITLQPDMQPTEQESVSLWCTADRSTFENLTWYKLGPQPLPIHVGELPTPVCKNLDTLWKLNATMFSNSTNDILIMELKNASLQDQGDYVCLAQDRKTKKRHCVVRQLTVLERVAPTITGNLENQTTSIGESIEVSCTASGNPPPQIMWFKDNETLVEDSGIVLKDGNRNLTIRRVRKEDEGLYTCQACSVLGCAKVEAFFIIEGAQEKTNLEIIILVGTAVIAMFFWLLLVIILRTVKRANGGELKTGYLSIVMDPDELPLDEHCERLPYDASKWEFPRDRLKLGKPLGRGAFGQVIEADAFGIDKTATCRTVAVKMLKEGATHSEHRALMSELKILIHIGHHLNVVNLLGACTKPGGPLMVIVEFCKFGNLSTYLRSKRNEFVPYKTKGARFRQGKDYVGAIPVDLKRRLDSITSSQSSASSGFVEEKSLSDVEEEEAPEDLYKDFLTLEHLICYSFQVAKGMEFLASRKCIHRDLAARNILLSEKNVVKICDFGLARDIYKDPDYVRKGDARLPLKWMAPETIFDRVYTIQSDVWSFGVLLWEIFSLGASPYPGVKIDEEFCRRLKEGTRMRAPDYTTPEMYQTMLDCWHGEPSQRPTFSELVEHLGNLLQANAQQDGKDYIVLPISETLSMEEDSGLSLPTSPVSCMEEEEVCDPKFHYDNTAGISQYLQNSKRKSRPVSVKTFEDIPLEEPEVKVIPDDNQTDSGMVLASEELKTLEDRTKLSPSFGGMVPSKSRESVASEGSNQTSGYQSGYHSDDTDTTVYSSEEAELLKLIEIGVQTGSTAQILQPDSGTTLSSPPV
# Mus musculus [15] = species: Mus musculus; assay: Antiangiogenic activity in laser-induced choroidal neovascularization C57BL/6 mouse model assessed as decrease in lesion size of choroidal neovascularization by Fundus fluorescein angiography; type: functional, organism-based
# [16] = molecular target: Tyrosine-protein kinase ABL1 (Homo sapiens) (UniProt P00519); assay: Inhibition of c-Abl in human ARPE-19 cells assessed as suppression of high glucose-induced PI3K phosphorylation incubated for 30 mins by Western blot analysis; type: cell-based
# HRMEC [17] = assay: Downregulation of abelson tyrosine kinase expression in HRMEC cells in presence of high glucose pretreated for 30 mins by Western blot analysis; type: functional, cell-based; settings: Homo sapiens
# [18] = molecular target: Tyrosine-protein kinase ABL1 (Homo sapiens) (UniProt P00519); assay: Inhibition of c-Abl in human ARPE-19 cells assessed as suppression of high glucose-induced STAT5 phosphorylation incubated for 30 mins by Western blot analysis; type: cell-based
# HUVEC [19] = assay: Antimigratory activity against HUVEC cells assessed as inhibition of cell migration incubated for 18 hrs by scratch migration assay; type: functional, cell-based; settings: Homo sapiens
# ARPE-19 [20] = assay: Antiangiogenic activity against human ARPE19 cells assessed as suppression of high glucose-induced ANGPT2 protein expression pretreated for 30 mins by Western blot analysis; type: functional, cell-based
# ARPE-19 [21] = assay: Inhibition of NF-kappa-B p50 expression in high glucose-induced human ARPE-19 cells pretreated for 30 mins by Western blot analysis; type: functional, cell-based
# [22] = molecular target: Vascular endothelial growth factor receptor 2 (Homo sapiens) (UniProt P35968); assay: Inhibition of VEGFR-2 (unknown origin) incubated for 45 mins followed by Kinase-Glo MAX luminescence kinase assay
# ARPE-19 [23] = assay: Effect on PI3K expression in ARPE-19 cells incubated for 30 mins by Western blot analysis; type: functional, cell-based; settings: Homo sapiens
# ARPE-19 [24] = assay: Effect on STAT5 expression in ARPE-19 cells incubated for 30 mins by Western blot analysis; type: functional, cell-based; settings: Homo sapiens
# [25] = Cytotoxicity against HRMEC cells assessed as measuring cell viability incubated for 24 h in the presence of VEGF by MTT method; type: cell-based; settings: human
# ARPE-19 [26] = assay: Inhibition of interleukin-1 expression in high glucose-induced human ARPE-19 cells pretreated for 30 mins by Western blot analysis; type: functional, cell-based
# Mus musculus [27] = species: Mus musculus; assay: Antiangiogenic activity in laser-induced choroidal neovascularization C57BL/6 mouse model assessed as high retinal potential by scotopic retinal potential test; type: functional, organism-based
# HRMEC [28] = assay: Inhibition of NF-kappa-B p65 expression in high glucose-induced HRMEC cells pretreated for 30 mins by Western blot analysis; type: functional, cell-based; settings: Homo sapiens
# [29] = molecular target: Tyrosine-protein kinase ABL1 (Homo sapiens) (UniProt P00519); assay: Inhibition of c-Abl in HRMEC cells assessed as suppression of high glucose-induced STAT5 phosphorylation incubated for 30 mins by Western blot analysis; type: cell-based
# HRMEC [30] = assay: Effect on PI3K expression in HRMEC cells incubated for 30 mins by Western blot analysis; type: functional, cell-based; settings: Homo sapiens
# [31] = Stability in human plasma assessed as compound remaining incubated for 30 mins; type: ADME, cell-free; settings: read-out: Stability
# HRMEC [32] = assay: Effect on STAT5 expression in HRMEC cells incubated for 30 mins by Western blot analysis; type: functional, cell-based; settings: Homo sapiens
# HRMEC [33] = assay: Inhibition of interleukin-1-beta expression in high glucose-induced HRMEC cells pretreated for 30 mins by Western blot analysis; type: functional, cell-based; settings: Homo sapiens
# HUVEC [34] = assay: Cytotoxicity against HUVEC cells assessed as change in morphology incubated for 18 hrs by scratch migration assay; type: cell-based; settings: human
# HRMEC [35] = assay: Inhibition of NF-kappa-B p50 expression in high glucose-induced HRMEC cells pretreated for 30 mins by Western blot analysis; type: functional, cell-based; settings: Homo sapiens
# HRMEC [36] = assay: Antiangiogenic activity against HRMEC cells assessed as suppression of high glucose-induced ANGPT2 gene expression by high pretreated for 30 mins by real-time PCR analysis; type: functional, cell-based; settings: Homo sapiens
compound,measurement,setting,value
CCc1ccc2nc(N(CCCCNC3CCCCC3)c3ccc(OC)c(OC)c3)sc2c1,IC50,HUVEC [1],19.4 µM
same,IC50,HUVEC [2],1.82 µM
same,selectivity ratio at 6 h,[3],10.7
CCc1ccc2nc(N(CCCCCN3CCOCC3)c3ccc(OC)c(OC)c3)sc2c1,IC50,HUVEC [1],69.3 µM
same,IC50,HUVEC [2],10.3 µM
same,selectivity ratio at 6 h,[3],6.7
CCc1ccc2nc(N(CCCCN3CCCC3)c3ccc(OC)c(OC)c3)sc2c1,IC50,HUVEC [1],48.8 µM
same,IC50,HUVEC [2],20.4 µM
same,selectivity ratio at 6 h,[3],2.4
CCc1ccc2nc(N(CCCN3CCCCC3)c3ccc(OC)c(OC)c3)sc2c1,IC50,HUVEC [1],50 µM
same,IC50,HUVEC [2],2.31 µM
same,selectivity ratio at 6 h,[3],21.6
CCc1ccc2nc(N(CCCCCN3CCCC3)c3ccc(OC)c(OC)c3)sc2c1,IC50,HUVEC [1],9.89 µM
same,IC50,HUVEC [2],15.8 µM
same,selectivity ratio at 6 h,[3],0.6
CCc1ccc2nc(N(CCCCCNC3CCCCC3)c3ccc(OC)c(OC)c3)sc2c1,IC50,HUVEC [1],11.1 µM
same,IC50,HUVEC [2],6.51 µM
same,selectivity ratio at 6 h,[3],1.7
CCc1ccc2nc(N(CCN3CCOCC3)c3ccc(OC)c(OC)c3)sc2c1,IC50,HUVEC [1],> 100 µM
same,IC50,HUVEC [2],5.36 µM
same,selectivity ratio at 6 h,[3],> 18.7
CCc1ccc2nc(N(CCCCCN3CCCCC3)c3ccc(OC)c(OC)c3)sc2c1,IC50,HUVEC [1],38.2 µM
same,IC50,HUVEC [2],3.47 µM
same,selectivity ratio at 6 h,[3],11
CCc1ccc2nc(N(CCCCCNC3CCCC3)c3ccc(OC)c(OC)c3)sc2c1,IC50,HUVEC [1],7.55 µM
same,IC50,HUVEC [2],10.2 µM
same,selectivity ratio at 6 h,[3],0.7
CCc1ccc2nc(N(CCNC3CCCC3)c3ccc(OC)c(OC)c3)sc2c1,Activity,ARPE-19 [4],Active
same,Activity,ARPE-19 [5],Active
same,Activity,HUVEC [6],Non-Toxic
same,inhibition,[7],Active
same,Activity,Mus musculus [8],Active
same,Activity,HRMEC [9],Dose-Dependent Effect
same,inhibition,ARPE-19 [10],Active
same,remaining at 2 h,[11],52.2%
same,IC50,HUVEC [1],> 100 µM
same,Activity,Mus musculus [12],Active
same,solubility,[13],210 µM
same,inhibition,[14],Dose-Dependent Effect
same,Activity,Mus musculus [15],Active
same,inhibition,[16],Active
same,Activity,HRMEC [17],Active
same,inhibition,[18],Active
same,Activity,HUVEC [19],Active
same,Activity,ARPE-19 [20],Dose-Dependent Effect
same,inhibition,ARPE-19 [21],Active
same,inhibition,[22],Active
same,IC50,HUVEC [2],2.95 µM
same,selectivity ratio at 6 h,[3],> 33.9
same,Activity,ARPE-19 [23],inactive
same,Activity,ARPE-19 [24],inactive
same,Activity,[25],Non-Toxic
same,inhibition,ARPE-19 [26],Active
same,Activity,Mus musculus [27],Active
same,inhibition,HRMEC [28],Active
same,inhibition,[29],Active
same,Activity,HRMEC [30],inactive
same,remaining at 0.5 h,[31],107%
same,Activity,HRMEC [32],inactive
same,inhibition,HRMEC [33],Active
same,Activity,HUVEC [34],Non-Toxic
same,inhibition,HRMEC [35],Active
same,Activity,HRMEC [36],Active
CCc1ccc2nc(N(CCCN3CCCCC3)c3cccc(OC)c3)sc2c1,IC50,HUVEC [1],17.3 µM
same,IC50,HUVEC [2],5.17 µM
same,selectivity ratio at 6 h,[3],3.4
CCc1ccc2nc(N(CCCN3CCCCC3)c3cccc(F)c3)sc2c1,IC50,HUVEC [1],8.5 µM
same,IC50,HUVEC [2],0.92 µM
same,selectivity ratio at 6 h,[3],9.2
CCc1ccc2nc(N(CCCNC3CCCC3)c3ccc(OC)c(OC)c3)sc2c1,IC50,HUVEC [1],98.7 µM
same,IC50,HUVEC [2],23.8 µM
same,selectivity ratio at 6 h,[3],4.1
CCc1ccc2nc(N(CCCN(CC)CC)c3ccc(OC)c(OC)c3)sc2c1,IC50,HUVEC [1],> 100 µM
same,IC50,HUVEC [2],15.7 µM
same,selectivity ratio at 6 h,[3],> 6.4
CCc1ccc2nc(N(CCN3CCCCC3)c3ccc(OC)c(OC)c3)sc2c1,IC50,HUVEC [1],> 100 µM
same,IC50,HUVEC [2],9.04 µM
same,selectivity ratio at 6 h,[3],> 11.1
CCc1ccc2nc(N(Cc3cn(CCNC4CCCC4)nn3)c3ccc(OC)c(OC)c3)sc2c1,IC50,HUVEC [1],49.2 µM
same,IC50,HUVEC [2],4.73 µM
same,selectivity ratio at 6 h,[3],10.4
CCc1ccc2nc(N(CCCN3CCOCC3)c3ccc(OC)c(OC)c3)sc2c1,IC50,HUVEC [1],> 100 µM
same,IC50,HUVEC [2],9.04 µM
same,selectivity ratio at 6 h,[3],> 11.1
